For data set [1], the target named is T1, HIV-integrase (recombinant integrase) (Human immunodeficiency virus type 1 group M subtype B, UniProt P12497).
T1 construct: Recombinant integrase (0.26 ng) was incubated with the beads
In words: HIV-Integrase Inhibition Activity (SPA bead strand-transfer assay). In kind it is biochemical. The conditions noted are these: recombinant integrase on biotin labeled substrate DNA/SPA beads, P33 labeled target DNA; read-out: Activity (IC50 against HIV-integrase). The method in brief:
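Recombinant integrase (0.26 ng) was bound for 90 min at 37° C to biotin-labelled substrate DNA (5 pmole) on streptavidin SPA beads. After washing, inhibitors and 0.1 fmol P33-labelled target DNA were added, and the reaction was stopped with 10 mM EDTA. Integration was measured as CPM.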

SMILES strings stand for the structures. Bounds are passed on as bounds.

On to `Cc1ncn(-c2nc(C(=O)NCc3ccc(F)c(C)c3)c(O)c(=O)n2C)n1` [Compound 60, N-[(4-fluoro-3-methylphenyl)methyl]-1,6-dihydro-5-hydroxy-1-methyl-2-(3-methyl-1H-1,2,4-triazol-1-yl)-6-oxo-4-pyrimidinecarboxamide], for which the melting point (commonly the temperature of the solid-liquid transition) is 204 to 205 °C. In addition, the IC50 – broadly, the point on the concentration scale where inhibition reaches its midpoint – in data set [1] was 3 to 100 nM.
`Cc1cc(CNC(=O)c2nc(N3CCOCC3)n(C)c(=O)c2O)ccc1F` [Compound 54, N-[(4-fluoro-3-methylphenyl)methyl]-1,6-dihydro-5-hydroxy-1-methyl-2-(4-morpholinyl)-6-oxo-4-pyrimidinecarboxamide]: the melting point was 182 to 185 °C. In addition, the IC50 in data set [1] was in the range of 3 to 100 nM.
Regarding `Cn1c(N2CCOCC2)nc(C(=O)NCc2ccc(F)c(Cl)c2)c(O)c1=O` [Compound 56, N-[(3-chloro-4-fluorophenyl)methyl]-1,6-dihydro-5-hydroxy-1-methyl-2-(4-morpholinyl)-6-oxo-4-pyrimidinecarboxamide], the melting point was 170 to 171 °C. Also, the IC50 in data set [1] lay within 3 to 100 nM.
As to `Cc1ncnn1-c1nc(C(=O)NCc2ccc(F)cc2)c(O)c(=O)n1C` [Compound 61, N-[(4-fluorophenyl)methyl]-1,6-dihydro-5-hydroxy-1-methyl-2-(5-methyl-1H-1,2,4-triazol-1-yl)-6-oxo-4-pyrimidinecarboxamide], the melting point came out at 230 °C. The IC50 in data set [1] was in the range of 100 to 1000 nM.
With `Cc1ccc(CNC(=O)c2nc(N3CCOCC3)n(C)c(=O)c2O)cc1F` [Compound 55, N-[(3-fluoro-4-methylphenyl)methyl]-1,6-dihydro-5-hydroxy-1-methyl-2-(4-morpholinyl)-6-oxo-4-pyrimidinecarboxamide], the melting point is 166 to 167 °C. In addition, in data set [1], the IC50 lay in the range of 3 to 100 nM.
As for `Cn1c(N2CCCCS2(=O)=O)nc(C(=O)Nc2ccc(F)cc2)c(O)c1=O` [Compound 50, 2-(1,1-Dioxo-1λ^6-[1,2]thiazinan-2-yl)-5-hydroxy-1-methyl-6-oxo-1,6-dihydro-pyrimidine-4-carboxylic acid (4-fluoro-phenyl)-amide], the melting point was 285 to 291 °C (dec.). In data set [1], the IC50 was ≥ 1000 nM.
Molecule `Cc1ccc(CNC(=O)c2nc(N3CCOCC3)n(C)c(=O)c2O)cc1C` [Compound 57, N-[(3,4-dimethylphenyl)methyl]-1,6-dihydro-5-hydroxy-1-methyl-2-(4-morpholinyl)-6-oxo-4-pyrimidinecarboxamide] showed a melting point of 164 to 166 °C. Also, the IC50 in data set [1] was 3 to 100 nM.
The molecule `Cn1c(N2CCOCC2)nc(C(=O)NCc2ccc(F)cc2)c(O)c1=O` [Compound 52, N-[(4-fluorophenyl)methyl]-1,6-dihydro-5-hydroxy-1-methyl-2-(4-morpholinyl)-6-oxo-4-pyrimidinecarboxamide] returned a melting point of 197 to 199 °C. In data set [1], the IC50 is 3 to 100 nM.
Consider `COc1ccccc1CCNC(=O)c1nc(N2CCCCS2(=O)=O)n(C)c(=O)c1O` [Compound 38, 1,6-dihydro-5-hydroxy-N-[2-(2-methoxyphenyl)ethyl]-1-methyl-6-oxo-2-(tetrahydro-1,1-dioxido-2H-1,2-thiazin-2-yl)-4-pyrimidinecarboxamide], for which, in data set [1], the IC50 is ≥ 1000 nM.
For `COc1cccc(CCNC(=O)c2nc(N3CCCCS3(=O)=O)n(C)c(=O)c2O)c1` [Compound 39, 1,6-dihydro-5-hydroxy-N-[2-(3-methoxyphenyl)ethyl]-1-methyl-6-oxo-2-(tetrahydro-1,1-dioxido-2H-1,2-thiazin-2-yl)-4-pyrimidinecarboxamide], in data set [1], the IC50 was ≥ 1000 nM.
The same measure, in the same setting: then `COc1ccc(CNC(=O)c2nc(N3CCCCS3(=O)=O)n(C)c(=O)c2O)c(OC)c1` [Compound 22, N-[(2,4-dimethoxyphenyl)methyl]-1,6-dihydro-5-hydroxy-1-methyl-6-oxo-2-(tetrahydro-1,1-dioxido-2H-1,2-thiazin-2-yl)-4-pyrimidinecarboxamide], with 3 to 100 nM.
As to `Cn1c(-n2ncccc2=O)nc(C(=O)NCc2ccc(F)cc2)c(O)c1=O` [Compound 100, N-[(4-fluorophenyl)methyl]-1,6-dihydro-5-hydroxy-1-methyl-6-oxo-2-(6-oxo-1(6H)-pyridazinyl)-4-pyrimidinecarboxamide], in data set [1], the IC50 was in the range of 100 to 1000 nM.
For `Cn1c(N2CCCCS2(=O)=O)nc(C(=O)NCc2cccs2)c(O)c1=O` [Compound 34, 1,6-dihydro-5-hydroxy-1-methyl-6-oxo-2-(tetrahydro-1,1-dioxido-2H-1,2-thiazin-2-yl)-N-(2-thienylmethyl)-4-pyrimidinecarboxamide], in data set [1], the IC50 lay within 100 to 1000 nM.
As for `Cc1cc(CNC(=O)c2nc(N3CCCCC3CCO)n(C)c(=O)c2O)ccc1F` (stereo not shown) [Compound 99, N-[(4-fluoro-3-methylphenyl)methyl]-1,6-dihydro-5-hydroxy-2-[2-(2-hydroxyethyl)-1-piperidinyl]-1-methyl-6-oxo-4-pyrimidinecarboxamide], the IC50 in data set [1] was in the range of 3 to 100 nM.
The molecule `Cn1c(N2CCOCC2)nc(C(=O)NCc2ccc(Cl)c(Cl)c2)c(O)c1=O` [Compound 53, N-[(3,4-dichlorophenyl)methyl]-1,6-dihydro-5-hydroxy-1-methyl-2-(4-morpholinyl)-6-oxo-4-pyrimidinecarboxamide] came in with a melting point of 100 to 102 °C. Further, the IC50 in data set [1] was 3 to 100 nM.
For `Cn1c(N2CCCCS2(=O)=O)nc(C(=O)NCCCc2ccc(F)cc2)c(O)c1=O` [Compound 6, N-[3-(4-fluorophenyl)propyl]-1,6-dihydro-5-hydroxy-1-methyl-6-oxo-2-(tetrahydro-1,1-dioxido-2H-1,2-thiazin-2-yl)-4-pyrimidinecarboxamide], the IC50 in data set [1] lay within 3 to 100 nM.
With `Cc1cc(CNC(=O)c2nc(N3CCN(c4ncccn4)CC3)n(C)c(=O)c2O)ccc1F` [Compound 78, N-[(4-fluoro-3-methylphenyl)methyl]-1,6-dihydro-5-hydroxy-1-methyl-6-oxo-2-[4-(2-pyrimidinyl)-1-piperazinyl]-4-pyrimidinecarboxamide], the IC50 in data set [1] lay within 3 to 100 nM.
In the case of `Cc1ncn(-c2nc(C(=O)NCc3ccc(Cl)c(Cl)c3)c(O)c(=O)n2C)n1` [Compound 59, N-[(3,4-dichlorophenyl)methyl]-1,6-dihydro-5-hydroxy-1-methyl-2-(3-methyl-1H-1,2,4-triazol-1-yl)-6-oxo-4-pyrimidinecarboxamide], the melting point is 188 to 189 °C (dec.). For the same molecule, the IC50 in data set [1] lay in the range of 3 to 100 nM.
